Tests used:
Assay type in all cases: functional, cell-based
[1] = target: T1, Broad substrate specificity ATP-binding cassette transporter ABCG2 (Mus musculus, UniProt Q7TMS5); assay: TP_TRANSPORTER: cell accumulation in MEF3.8, M32 and T6400 cells; settings: mef3.8;m32;t6400
T1 sequence (Q7TMS5 whole entry): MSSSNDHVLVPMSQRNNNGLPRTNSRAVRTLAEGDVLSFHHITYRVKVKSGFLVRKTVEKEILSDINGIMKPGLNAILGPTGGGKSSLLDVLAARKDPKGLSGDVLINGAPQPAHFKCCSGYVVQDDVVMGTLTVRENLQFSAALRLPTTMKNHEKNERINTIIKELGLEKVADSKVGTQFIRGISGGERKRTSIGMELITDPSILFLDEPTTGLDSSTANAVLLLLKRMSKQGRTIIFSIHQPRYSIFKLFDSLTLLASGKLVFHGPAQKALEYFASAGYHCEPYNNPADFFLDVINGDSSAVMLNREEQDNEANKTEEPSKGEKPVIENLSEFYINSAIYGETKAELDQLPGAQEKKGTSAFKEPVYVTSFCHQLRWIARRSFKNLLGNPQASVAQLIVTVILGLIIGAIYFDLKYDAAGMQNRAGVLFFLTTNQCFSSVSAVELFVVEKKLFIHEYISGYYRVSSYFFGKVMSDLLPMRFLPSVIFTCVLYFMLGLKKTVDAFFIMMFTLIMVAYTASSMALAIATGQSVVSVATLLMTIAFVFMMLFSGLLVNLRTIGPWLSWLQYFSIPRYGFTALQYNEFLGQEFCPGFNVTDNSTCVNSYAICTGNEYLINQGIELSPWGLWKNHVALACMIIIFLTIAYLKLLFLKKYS

[2] = target: T1, Broad substrate specificity ATP-binding cassette transporter ABCG2; assay: TP_TRANSPORTER: cell accumulation in KOT52 and D320 cells
[3] = target: T1, Broad substrate specificity ATP-binding cassette transporter ABCG2; assay: TP_TRANSPORTER: increase in mitoxantrone intracellular accumulation (Mitoxantrone: 20 uM, GF120918: 2 uM) in MEF3.8, M32 and T6400 cells; settings: mef3.8;m32;t6400, 2 µM
[4] = target: T1, Broad substrate specificity ATP-binding cassette transporter ABCG2; assay: TP_TRANSPORTER: increase in mitoxantrone intracellular accumulation (Mitoxantrone: 20 uM, GF120918: 2 uM) in KOT52 and D320 cells; settings: kot52;d320, 2 µM

| SMILES | Activity [1] | Activity [2] | Activity [3] | Activity [4] |
| --- | --- | --- | --- | --- |
| O=C1c2c(O)ccc(O)c2C(=O)c2c(NCCNCCO)ccc(NCCNCCO)c21 [MITOXANTRONE] | substrate [+] | substrate [+] | – | – |
| COc1cc2c(cc1OC)CN(CCc1ccc(NC(=O)c3cccc4c(=O)c5cccc(OC)c5[nH]c34)cc1)CC2.Cl [ELACRIDAR HYDROCHLORIDE] | – | – | inhibitor [+] | inhibitor [+] |

Source: ChEMBL document CHEMBL2074571, “The mouse Bcrp1/Mxr/Abcp gene: amplification and overexpression in cell lines selected for resistance to topotecan, mitoxantrone, or doxorubicin” (Cancer Res, 1999)
